In brackets after ≈: the same amount, converted by molar mass.
Experiments:
[1] = test system: rat skin; conditions: […] DC in ethanol/glycerol/water 6:1:3 on rat skin; cited from earlier work
[2] = Diclofenac permeation through human skin in Franz diffusion cells with co-applied enhancer; type: in vitro ADME; conditions: pH 7.4; 3% DC in 60% PG, no enhancer; human skin in vitro; read-out: permeability coefficient of DC (converted)
Experimental: (§1) Donor samples for reversibility and infrared studies contained 1% enhancer in 60% PG. All samples were thoroughly mixed, incubated at 32 °C for 24 h, and, if needed, carefully resuspended before applying on the skin. The effects of the studied enhancers on the solubility of model drugs were assessed as described previously.
(§2) The permeation-enhancing potencies of the prepared compounds were evaluated on human skin in Franz diffusion cells. Human skin was slowly thawed, cut into 2 × 2 cm pieces, fixed in Teflon holders with 1-cm^2 circular permeation areas, and mounted into Franz cells epidermal side up. The acceptor compartment (15.9 ± 0.1 ml) was filled with phosphate-buffered saline at pH 7.4 with 0.005% gentamicin (PBS) and stirred at 32 °C throughout the experiment. The skin integrity was checked by electrical impedance (any skin sample with the impedance < 10 kΩ was excluded). Then, 100 µl of a donor sample (infinite dose) was applied to the skin and covered with a glass slide. Acceptor phase samples (300 µl) were collected at predetermined time intervals for 48 h, to reach steady-state and were replaced by the same volume of fresh PBS. […] The drug concentrations were measured by HPLC (see supplementary data).
(§3) The flux of the model drug through the skin Jss (µg/cm^2/h) was calculated from the linear region of this plot. The enhancement ratio (ER) was calculated as the ratio of flux with and without an enhancer.
(§4) After the permeation experiment, the cells were dismounted, the skin was carefully washed with PBS, and the permeation area of the skin (1 cm^2) was punched off. After heating the skin fragments to 80 °C for 1 min, the epidermis (E) was peeled off the dermis (D), individually weighed and extracted by 1 and 2 ml, respectively, of an extraction solvent (identical to the mobile phase for the drug HPLC analysis, see supplementary data) for 24 h. The drug concentration was measured by HPLC (see supplementary data).

[3] = Solubility of model drugs (donor sample, PBS); conditions: for solubility: pH 7.4
Experimental: as §1, §2

[4] = test system: human skin; conditions: 5% DC in PBS/isopropyl alcohol 9:1 on human skin; cited from earlier work
[5] = test system: human skin; test: Diclofenac permeation through human skin in Franz diffusion cells with co-applied enhancer; type: in vitro ADME; conditions: 1% enhancer co-applied with 3% DC in 60% PG
Experimental: as §1, §2, §3, §4

[6] = test system: human skin; test: Theophylline permeation through human skin in Franz diffusion cells with co-applied enhancer; type: in vitro ADME; conditions: 1% enhancer co-applied with 5% TH in 60% PG
Experimental: The prepared enhancers were applied at 1% in 60% aqueous propylene glycol (PG) to human skin in vitro; 60% PG was used as a negative control. PG was selected for its synergy with amphiphilic enhancers. Each model drug was co-applied with the enhancer at infinite dose.
as §1, §2, §3, §4

[7] = DC: free acid form; quoted without reference; cited from earlier work
[8] = test system: rats; conditions: cited from earlier work
[9] = test system: rat skin; conditions: rats; cited from earlier work
[10] = test system: HaCaT and 3T3 cells; conditions: read-out: in vitro cellular toxicities on HaCaT and 3T3 cells; cited from earlier work
[11] = after 48 h permeation, mean ± SEM

For `O=C(O)Cc1ccccc1Nc1c(Cl)cccc1Cl` [DC, diclofenac], the “permeability coefficient of DC” value [1] is listed as 11.0 × 10^–5 cm/h, the Papp at 48 h, 3 % [2] is listed as 0.0144 ×10⁻⁶ cm/s and the solubility ([3]; phosphate-buffered saline) is listed as 9450 ± 150 µg/mL (≈ 31.9 mM). The “permeability coefficient of DC” value [4] was 2.2 × 10^–5 cm/h.
For `CCCCCCCCCCCCOC(=O)C1CCCN1C(=O)CCCCCCC` (stereo not shown) [Pro8], the “CDERMIS, diclofenac concentration in dermis” value [5, 11] was 1.08 ± 0.28 µg/mg, the “CEPIDERMIS, diclofenac concentration in epidermis” value [5, 11] was 10.20 ± 0.96 µg/mg and the “ER, enhancement ratio of diclofenac flux” value ([5]; human skin in vitro) was 3. For the same compound, the “CDERMIS, theophylline concentration in dermis” value [6, 11] was 0.19 ± 0.02 µg/mg, the “CEPIDERMIS, theophylline concentration in epidermis” value [6, 11] was 0.89 ± 0.25 µg/mg and the “ER, enhancement ratio of theophylline flux (fold increase in flux over control)” value ([6]; human skin in vitro) was 9.
For `Cn1c(=O)c2[nH]cnc2n(C)c1=O` [TH, theophylline], the solubility at 24 h [3] is listed as about 25 mg/mL (≈ 139 mM), the solubility [3] is listed as 7650 ± 20 µg/mL (≈ 42.5 mM) and the logP [7] is listed as ~ 0.
In the case of `CCCCCCCCCCCCOC(=O)CCCCCN.CCCCCCCCCCCCOC(=O)CCCCCNC(=O)O` [Transkarbam 12], the “acute oral toxicity in rats” value [8] is listed as “no acute oral toxicity in rats”, the “in vivo dermal irritation and toxicity” value [9] is listed as “low in vivo dermal irritation and toxicity” and the IC50 [10] is listed as 21 to 26 µM.

From PMC9663686, “Proline, hydroxyproline, and pyrrolidone carboxylic acid derivatives as highly efficient but reversible transdermal permeation enhancers” (Scientific Reports, 2022)
